SMILES strings stand for the structures.

Results on eight compounds are retold here after US20250179057A1, “MEK IMMUNE ONCOLOGY INHIBITORS AND THERAPEUTIC USES THEREOF” (Immuneering Corporation, priority 2022, published 2025).

Data set [1] can be described thus: Plasma stability, beagle dog plasma (K2EDTA). The data set is classed as in vitro ADME. The conditions noted are these: 2 μM; plasma; 2 hour. As to the method:
(§1) Individual stock solutions of propantheline and lovastatin were prepared at 10 mM in DMSO and were further diluted to 2 mM with DMSO.
(§2) Frozen matrices (Balb/c mouse, Wistar Han rat, Beagle dog, and human plasma containing K2EDTA as anti-coagulant) were thawed and centrifuged at 3100 rpm for 10 minutes at 4° C. to remove particulates. The lipid layer was then removed, and the supernatant was transferred to a new tube without disturbing the pellet. After the matrices were incubated at 37° C. for at least 10 minutes, the pH of each matrix was adjusted to pH 7.4, using 10% phosphoric acid or 1N sodium hydroxide as necessary. Test and control article stock solutions were spiked (2 μL) into matrix (1.998 mL) and mixed to final assay concentration of […]. Duplicate 30-μL aliquots of spiked plasma were transferred to matrix tubes in 96-well plate immediately after spiking for timepoints of 0, 30, 60, 120, 240, and 360 minutes. These tubes were then incubated at 37° C. with shaking and at each timepoint, the corresponding tubes containing samples were quenched with 180 μL of cold acetonitrile containing the internal standards. The quenched samples were vortex-mixed briefly and stored refrigerated. After the final time point (360 minutes), the plates with all quenched samples were vortex-mixed for 10 minutes and then centrifuged at 3100 rpm for 10 minutes at 4° C. to sediment the precipitated protein. The supernatant (50 μL) was transferred to a clean 96-well plate and diluted with 100 μL of water. The plates were stored refrigerated until analysis.
(§3) Data Analysis: Peak area ratios for IS-normalized test article and control article counts were used to calculate the percent remaining relative to the time zero (T0) value. As appropriate, results were plotted and further analyzed to calculate half-life (T1/2) values.
(§4) Mean peak area ratios were used to calculate the % remaining relative to the T0 value:
(§5) In this study, human, cynomolgus monkey, beagle dog, wistar hannover rat, and balb/c plasma stability was determined. Table 28 describes the results of the human plasma stability at 2 μM concentration and anti-coagulant K2-EDTA from 10 to 120 min. Table 29 describes the results of the cynomolgus monkey plasma stability at 2 μM concentration and anti-coagulant K2-EDTA. Table 30 describes the results of the beagle dog plasma stability at 2 μM concentration and anti-coagulant K2-EDTA. Table 31 describes the results of the wistar hannover rat plasma stability at 2 μM concentration and anti-coagulant K2-EDTA. Table 32 describes the results of the balb/c plasma stability at 2 μM concentration and anti-coagulant K2-EDTA.

The nature of data set [2]: Plasma stability, human plasma (K2EDTA). In kind it is in vitro ADME. The conditions noted are these: 2 μM; plasma; 2 hour. As for the experimental part:
as §1, §2, §3, §4, §5

Data set [3] is described as follows: Plasma stability, mouse plasma (Balb/c; Table 5 head CD-1 Mouse). In kind it is in vitro ADME. The conditions noted are these: 2 μM; plasma; 2 hour.
The next data set is described as follows: in vitro. The conditions noted are these: human.
In another data set the target is T1, CYP2C8 (Homo sapiens, UniProt P10632).
T1 sequence (P10632 1-490): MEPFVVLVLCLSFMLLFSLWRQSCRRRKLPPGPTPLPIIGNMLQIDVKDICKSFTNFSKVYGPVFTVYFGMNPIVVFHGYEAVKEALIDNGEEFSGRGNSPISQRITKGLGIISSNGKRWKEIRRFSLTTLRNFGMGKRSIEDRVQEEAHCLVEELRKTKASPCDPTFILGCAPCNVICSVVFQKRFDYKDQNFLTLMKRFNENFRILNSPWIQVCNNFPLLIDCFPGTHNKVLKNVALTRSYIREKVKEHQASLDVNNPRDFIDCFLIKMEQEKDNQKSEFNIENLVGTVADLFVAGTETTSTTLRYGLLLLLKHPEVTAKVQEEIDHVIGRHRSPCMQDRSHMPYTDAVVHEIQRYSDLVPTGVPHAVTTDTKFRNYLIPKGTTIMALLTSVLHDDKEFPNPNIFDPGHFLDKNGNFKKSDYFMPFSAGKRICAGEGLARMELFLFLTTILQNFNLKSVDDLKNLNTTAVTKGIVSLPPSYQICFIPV
The experiment in a line: in vitro. The conditions noted are these: pooled liver microsomes, pH 7.4, probe amodiaquine.

The target of the next data set is CYP2C19 (Homo sapiens, UniProt P33261). The experiment in a line: in vitro. The conditions noted are these: pooled liver microsomes, pH 7.4, probe mephenytoin. A general note: Microsomes from liver hold many membrane-bound enzymes, among them those of drug oxidation.
The target in a further data set is CYP2D6 (Homo sapiens, UniProt P10635). Nature of the data set: CYP450 panel inhibition in human liver microsomes, 2D6 (dextromethorphan). To be noted: control dose 1 μM, substrate dextromethorphan.
The subject of data set [4] is phospho-ERK in A549 (KRAS G12S) cells. Nature of the data set: Cell-based pERK (pERK:tERK) in A549 cells. To be noted: for activity at 0.01 µM: Homo sapiens, A549, 2 h, read-out: A549-pERK (10 nM, 2 h); for pERK:tERK (10 nM 2 h A549): Phospho-ERK Screen in A549 (KRAS G12S), head 10 nM 2 h, title 10 μM for 2 hours. Summed up: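 Readout was pERK versus tERK by Western blot with IRDye-labelled secondary antibodies, imaged and quantified on a LI-COR Odyssey. Lysates were loaded at 1 mg/mL protein after Bradford estimation.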

For a further data set, the target named is hERG (Homo sapiens, UniProt Q12809). Nature of the data set: cell-based. As to the method:
Materials and Methods: CHO cells (transformed with adenovirus 5 DNA; Stably transfected with full length hERG cDNA) were cultured in Ham's F-12 supplemented with 10% fetal bovine serum, 100 U/mL penicillin G sodium, 100 μg/mL streptomycin sulfate and 400 μg/mL Zeocin. Before testing, cells in culture dishes were rinsed with Hank's Balanced Salt Solution, detached with accutase.
HEPES-buffered intracellular solution (Charles River proprietary) for whole cell recordings was loaded into the intracellular compartment of the SP384PE. Extracellular buffer (HB-PS) and Cell suspension (in HB-PS) were pipetted into the extracellular compartment of the SP384PE chip. After establishment of a whole-cell configuration, membrane currents were recorded using patch clamp amplifier in the SP384PE system.
Test article (TA) concentrations (eight (8) concentrations of each test article were evaluated) were applied to naïve cells (n=4, where n=replicates/concentration). Each application consisted of addition of 40 μL of 2× concentrated test article solution to the total 80 μL of final volume of the extracellular well of the SP384PE chip. Duration of exposure to each compound concentration was five (5) minutes.
hERG current was measured using stimulus voltage patterns with fixed amplitudes: activation pre-pulse (TP1) to +40 mV for 2 s and test pulse (TP2) to −40 mV for 2 s from a holding potential of −80 mV. hERG current was measured as the outward peak current at TP2 (tail current). The stimulation was repeated with 0.1 Hz frequency during 2 min as baseline and 5 min after TA application.
Data acquisition and analyses were performed using the SP384PE system operation software. The decrease in current amplitude after TA application was used to calculate the percent block relative to control.
Tonic Block effect was calculated as:
[formula] • where ITP2, baseline and ITP2, TA were the outward peak K^+ currents elicited by the TP2 before application and 5 min after application of a test article, respectively.
The data were corrected for run-down:
[formula] • where % VC and % PC were the mean values of the current block with the vehicle and positive controls, respectively.
Concentration-response data were fitted to an equation of the following form:
[formula] • where [Test] was the concentration of test article, IC50 was the concentration of the test article producing half-maximal block, N was the Hill coefficient, % VC was the mean current block at the vehicle control and % Block was the percentage of ion channel current inhibited at each concentration of a test article. Nonlinear least squares fits were solved with the XLfit add-in for Excel (Microsoft, Redmond, WA).
In this study, hERG Ion channel block of IC50 values were determined. […] In brief, CHO cells were cultured in Ham's F-12 supplemented with 10% fetal bovine serum, 100 U/mL penicillin G sodium, 100 μg/mL streptomycin sulfate and 400 μg/mL Zeocin. Before testing, cells in culture dishes were rinsed with Hank's Balanced Salt Solution, detached with accutase. […] Test article (TA) concentrations were applied to naïve cells (n=4, where n=replicates/concentration). Each application consisted of addition of 40 μL of 2× concentrated test article solution to the total 80 μL of final volume of the extracellular well of the SP384PE chip. Duration of exposure to each compound concentration was five (5) minutes. hERG current was measured using stimulus voltage patterns with fixed amplitudes: activation pre-pulse (TP1) to +40 mV for 2 s and test pulse (TP2) to −40 mV for 2 s from a holding potential of −80 mV. hERG current was measured as the outward peak current at TP2 (tail current). The stimulation was repeated with 0.1 Hz frequency during 2 min as baseline and 5 min after TA application. Data acquisition and analyses were performed using the SP384PE system operation software.

A short description of the next data set: PAMPA (pH 7.4). The data set is classed as in vitro ADME. To be noted: PAMPA; pH = 7.4 (Table 14). (PAMPA measures passive passage across an artificial lipid membrane.)
Where [5] appears, read: Caco-2, Mean (B-A/A-B) (Efflux Ratio).
The mark [6] stands for this setting: Caco-2, Mean Papp A − B (10^−6 cm/s).
Setting [7] is: Caco-2, Mean Papp A-B (10^-6 cm/s).
Setting [8] is: Caco-2, Mean Papp B − A (10^−6 cm/s).
Where [9] appears, read: Caco-2, Mean Papp B-A (10^-6 cm/s).

Chain of hERG (Q12809 whole entry): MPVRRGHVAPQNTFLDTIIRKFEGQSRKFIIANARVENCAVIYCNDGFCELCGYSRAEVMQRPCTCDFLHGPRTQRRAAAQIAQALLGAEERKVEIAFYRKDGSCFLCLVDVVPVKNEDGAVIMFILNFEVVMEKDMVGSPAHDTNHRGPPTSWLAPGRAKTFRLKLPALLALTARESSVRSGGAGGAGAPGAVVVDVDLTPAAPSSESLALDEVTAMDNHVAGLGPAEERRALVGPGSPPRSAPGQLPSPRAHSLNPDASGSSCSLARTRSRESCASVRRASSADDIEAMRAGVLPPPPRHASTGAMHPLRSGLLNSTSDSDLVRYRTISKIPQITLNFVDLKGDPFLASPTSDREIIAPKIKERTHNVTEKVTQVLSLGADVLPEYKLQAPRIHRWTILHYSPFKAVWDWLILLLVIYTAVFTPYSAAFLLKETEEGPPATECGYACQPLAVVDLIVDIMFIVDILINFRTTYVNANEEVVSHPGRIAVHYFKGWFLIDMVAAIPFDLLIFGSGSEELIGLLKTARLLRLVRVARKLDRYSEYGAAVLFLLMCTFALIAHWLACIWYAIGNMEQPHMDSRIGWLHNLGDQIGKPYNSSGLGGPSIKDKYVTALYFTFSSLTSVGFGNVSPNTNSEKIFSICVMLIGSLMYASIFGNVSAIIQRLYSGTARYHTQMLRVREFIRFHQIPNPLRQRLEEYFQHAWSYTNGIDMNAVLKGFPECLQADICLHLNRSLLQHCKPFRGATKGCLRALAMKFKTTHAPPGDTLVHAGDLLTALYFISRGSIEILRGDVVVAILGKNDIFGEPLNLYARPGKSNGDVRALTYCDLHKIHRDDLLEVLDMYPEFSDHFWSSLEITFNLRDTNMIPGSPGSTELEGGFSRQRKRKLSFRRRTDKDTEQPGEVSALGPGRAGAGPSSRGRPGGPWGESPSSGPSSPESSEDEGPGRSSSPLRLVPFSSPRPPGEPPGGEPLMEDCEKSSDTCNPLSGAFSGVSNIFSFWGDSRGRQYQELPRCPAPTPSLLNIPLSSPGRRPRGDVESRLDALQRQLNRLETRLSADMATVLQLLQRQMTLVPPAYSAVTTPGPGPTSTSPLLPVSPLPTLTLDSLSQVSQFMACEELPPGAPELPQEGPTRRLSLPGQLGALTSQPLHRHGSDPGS
Chain of CYP2C19 (P33261 whole entry): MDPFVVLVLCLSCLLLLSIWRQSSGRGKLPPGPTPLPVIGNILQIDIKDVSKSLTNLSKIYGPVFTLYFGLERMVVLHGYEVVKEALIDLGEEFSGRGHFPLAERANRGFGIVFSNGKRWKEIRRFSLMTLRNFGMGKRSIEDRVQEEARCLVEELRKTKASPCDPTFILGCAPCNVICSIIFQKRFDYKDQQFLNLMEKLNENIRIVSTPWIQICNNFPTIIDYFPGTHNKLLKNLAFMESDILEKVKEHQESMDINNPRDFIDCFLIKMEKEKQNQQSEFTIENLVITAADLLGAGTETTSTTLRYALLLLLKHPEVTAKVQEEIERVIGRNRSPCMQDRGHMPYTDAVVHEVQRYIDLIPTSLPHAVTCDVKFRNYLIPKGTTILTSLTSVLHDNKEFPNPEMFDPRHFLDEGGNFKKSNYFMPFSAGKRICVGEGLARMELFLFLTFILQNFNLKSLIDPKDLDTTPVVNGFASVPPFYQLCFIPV
Chain of CYP2D6 (P10635 whole entry): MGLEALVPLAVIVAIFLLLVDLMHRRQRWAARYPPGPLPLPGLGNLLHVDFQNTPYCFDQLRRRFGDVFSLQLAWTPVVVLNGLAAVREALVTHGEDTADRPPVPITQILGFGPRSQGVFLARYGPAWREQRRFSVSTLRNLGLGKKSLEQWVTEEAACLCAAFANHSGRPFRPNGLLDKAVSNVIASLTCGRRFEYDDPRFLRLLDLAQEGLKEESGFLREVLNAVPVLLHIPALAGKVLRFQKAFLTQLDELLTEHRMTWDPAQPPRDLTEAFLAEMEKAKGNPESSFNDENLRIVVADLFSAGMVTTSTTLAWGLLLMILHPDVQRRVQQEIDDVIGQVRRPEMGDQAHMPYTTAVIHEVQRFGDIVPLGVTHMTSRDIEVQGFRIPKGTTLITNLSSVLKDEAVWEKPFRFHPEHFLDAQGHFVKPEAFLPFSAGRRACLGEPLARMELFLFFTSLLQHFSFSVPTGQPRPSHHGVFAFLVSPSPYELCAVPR
Method for PAMPA (pH 7.4): Each stock solution was diluted to 50 M in pH 7.4 Prisma HT buffer (pION) and 200 μl was added to each well of the donor plate in triplicate. The polyvinylidene fluoride (PVDF, 0.45 μm) filter membrane on the acceptor plate was coated with 5 μl gastrointestinal tract lipid formulation (GIT-0, pION) and to each well of the acceptor plate, 200 μl of acceptor sink buffer (pION) was added. The acceptor filter plate was then carefully placed on top of the donor plate to form a sandwich. The sandwich was incubated at 25° C. for 4 h without stirring. UV-vis spectra of the solutions in the blank, reference, acceptor and donor plates were measured using a microplate reader (Tecan Infinite 200PRO M Nano Plus). Permeability values were calculated using the PAMPA explorer software v.

Turning to `CC[C@H](C)C(=O)O[C@H]1C[C@@H](C)C=C2C=C[C@H](C)[C@H](CC[C@@H]3C[C@@H](O)CC(=O)O3)[C@H]21` [Lovastatin, reference compound], in data set [1], the “Beagle Dog (% Reamining @2 hour)” value worked out at 94.1%. Besides, in [2], the “Human (% Reamining @2 hour)” value is reported as 81.8%. For the same compound, in data set [3], the “CD-1 Mouse (% Reamining @2 hour)” value worked out at 0.6%.
As usually defined, the efflux ratio is a quotient of directional permeabilities that is used to spot active efflux. For orientation: Papp A→B means the apparent permeability from the apical to the basolateral side of a cell layer. Read a high Papp A→B as ready permeation. Broadly, the Papp B→A is the apparent permeability from the basolateral to the apical side of a cell layer. `CNC(=C[N+](=O)[O-])NCCSCc1ccc(CN(C)C)o1` [Ranitidine]: the “A − B Permeability Ranking” value in the data set with Caco-2 cells is listed as “Lower”. Moreover, the “A-B Permeability Ranking” value in the data set with Caco-2 cells is on record as “Low”. For the same compound, the efflux ratio at 2 h, 10 μM in “in vitro” (setting [5]) came to 4.06; in “in vitro” (Caco-2, Mean Efflux Ratio), 2.89. The apparent permeability from apical to basolateral (Papp A→B) at 2 h, 10 μM in “in vitro” (setting [6]) stood at 0.407 ×10⁻⁶ cm/s; in “in vitro” (setting [7]), 0.347 ×10⁻⁶ cm/s. Further, the basolateral-to-apical permeability (Papp B→A) at 2 h, 10 μM in “in vitro” (setting [8]) came out at 1.18 ×10⁻⁶ cm/s; in the data set “in vitro” (setting [9]), 1.41 ×10⁻⁶ cm/s.
The inhibition is the change of the read-out against control, counted positive when it falls. In turn, `O=c1c(O)c(-c2ccc(O)c(O)c2)oc2cc(O)cc(O)c12` [Quercetin, reference compound] showed an inhibition at 30 min, 10 µM against CYP2C8 of 88.3%.
Consider `COc1ccc2[nH]c([S+]([O-])Cc3ncc(C)c(OC)c3C)nc2c1` (stereo not drawn) [Omeprazole, reference compound], for which the inhibition at 30 min, 10 µM against CYP2C19 amounted to 60.7%.
For the compound `C=C[C@H]1C[N@@]2CC[C@H]1C[C@@H]2[C@@H](O)c1ccnc2ccc(OC)cc12` [Quinidine, reference compound], the “CYP-2D6 (Dextromethorphan) mean percentage CYP inhibition, control” value at CYP2D6 is given as 93.1%.
As a reminder, the IC50 is the concentration that gives 50% inhibition. Usually Papp stands for a coefficient for how fast a substance crosses the barrier. Higher therefore signals fast passage. As for `CNS(=O)(=O)Nc1cccc(Cc2c(CN3CCNCC3)c3cc(F)c(OC(=O)N(C)C)cc3oc2=O)c1Cl` [Compound 254, 3-(2-chloro-3-((N-methylsulfamoyl)amino)benzyl)-6-fluoro-2-oxo-4-(piperazin-1-ylmethyl)-2H-chromen-7-yl dimethylcarbamate], in [4], the activity at 0.01 µM is 26.8% and the “pERK:tERK (10 nM 2 h A549)” value was found to be 27. Besides, the concentration for half-maximal inhibition (IC50) on hERG was above 30 µM. In the data set “PAMPA (pH 7.4)”, this compound yielded a Papp at 4 h, 50 μM of 2 ×10⁻⁶ cm/s.
For the compound `CCS(=O)(=O)Nc1cccc(Cc2c(CN3CCNCC3)c3cc(F)c(OC(=O)N(C)C)cc3oc2=O)c1Cl` [Compound 255, 3-(2-chloro-3-(ethylsulfonamido)benzyl)-6-fluoro-2-oxo-4-(piperazin-1-ylmethyl)-2H-chromen-7-yl dimethylcarbamate], in data set [4], the activity at 0.01 µM was determined as 37.1% and the “pERK:tERK (10 nM 2 h A549)” value turned out to be 37. At hERG, half-maximal inhibition (IC50) was put at 18.1 µM. Moreover, the apparent permeability (Papp) at 4 h, 50 μM in “PAMPA (pH 7.4)” is 5 ×10⁻⁶ cm/s.
Turning to `CC(=O)CC(c1ccccc1)c1c(O)c2ccccc2oc1=O` (stereo not drawn) [Warfarin], the “A − B Permeability Ranking” value with Caco-2 cells is on record as “Higher”. The “A-B Permeability Ranking” value in the data set with Caco-2 cells is “High”. Also, the efflux ratio at 2 h, 10 μM in the data set “in vitro” (setting [5]) was determined as 0.726; in the data set “in vitro” (Caco-2, Mean Efflux Ratio), 0.513. Besides, the apical-to-basolateral permeability (Papp A→B) at 2 h, 10 μM in the data set “in vitro” (setting [6]) was determined as 40.5 ×10⁻⁶ cm/s; in “in vitro” (setting [7]), 36.6 ×10⁻⁶ cm/s. The basolateral-to-apical permeability (Papp B→A) at 2 h, 10 μM in “in vitro” (setting [8]) was 20.8 ×10⁻⁶ cm/s; in “in vitro” (setting [9]), 26.6 ×10⁻⁶ cm/s.
